The test has as its target human factor Xa (Homo sapiens, UniProt P00742). The experiment in a line: Factor Xa assay (chromogenic, substrate S-2765).

human factor Xa, sequence (P00742 235-488 limits assumed): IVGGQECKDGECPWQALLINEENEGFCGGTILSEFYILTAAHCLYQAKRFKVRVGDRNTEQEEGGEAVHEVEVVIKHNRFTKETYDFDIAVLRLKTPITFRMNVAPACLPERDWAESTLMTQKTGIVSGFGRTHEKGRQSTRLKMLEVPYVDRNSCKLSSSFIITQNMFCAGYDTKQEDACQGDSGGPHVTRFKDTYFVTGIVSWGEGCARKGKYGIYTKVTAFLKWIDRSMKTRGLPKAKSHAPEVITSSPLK
human factor Xa, sequence (P00742 41-179 partner limits assumed): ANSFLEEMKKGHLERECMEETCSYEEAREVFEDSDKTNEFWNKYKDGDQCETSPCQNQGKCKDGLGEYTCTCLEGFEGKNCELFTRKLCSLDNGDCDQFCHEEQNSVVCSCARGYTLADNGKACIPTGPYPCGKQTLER

One may read the Ki as a measure of affinity in units of concentration, obtained from inhibition or displacement. Read a high Ki as a looser hold on the target. Take `CC(C)N1CCC(NC(=O)c2nn(Cc3cc(-c4ccc(Cl)s4)on3)c3ccc(C(=O)N(CCO)CCO)cc23)CC1` [Example 17, 1-[5-(5-Chloro-thiophen-2-yl)-isoxazol-3-ylmethyl]-1H-indazole-3,5-dicarboxylic acid 5-[bis-(2-hydroxy-ethyl)-amide]3-[(1-isopropyl-piperidin-4-yl)-amide]]: the Ki came out at 0.03 µM.
The result for `CC(C)N1CCC(NC(=O)c2nn(Cc3cc(-c4ccc(Cl)s4)on3)c3ccc(C(=O)OCCO)cc23)CC1` [Example 29, 1-[5-(5-Chloro-thiophen-2-yl)-isoxazol-3-ylmethyl]-3-(1-isopropyl-piperidin-4-ylcarbamoyl)-1H-indazole-5-carboxylic acid 2-hydroxy-ethyl ester] reads 0.039 µM; that for `CCOC(=O)CNC(=O)c1ccc2c(c1)c(C(=O)NC1CCN(C(C)C)CC1)nn2Cc1cc(-c2ccc(Cl)s2)on1` [Example 19, {[1-[5-(5-Chloro-thiophen-2-yl)-isoxazol-3-ylmethyl]-3-(1-isopropyl-piperidin-4-ylcarbamoyl)-1H-indazole-5-carbonyl]-amino}-acetic acid ethyl ester], 0.026 µM.
On to `COCCOC(=O)c1ccc2c(c1)c(C(=O)NC1CCN(C(C)C)CC1)nn2Cc1cc(-c2ccc(Cl)s2)on1` [Example 56, 1-[5-(5-Chloro-thiophen-2-yl)-isoxazol-3-ylmethyl]-3-(1-isopropyl-piperidin-4-ylcarbamoyl)-1H-indazole-5-carboxylic acid 2-methoxy-ethyl ester], for which the Ki was 0.043 µM.
The result for `CC(C)N1CCC(NC(=O)c2nn(Cc3cc(-c4ccc(Cl)s4)on3)c3cccc(-c4noc(=O)[nH]4)c23)CC1` [Example 11, 1-[5-(5-Chloro-thiophen-2-yl)-isoxazol-3-ylmethyl]-4-(5-oxo-4,5-dihydro-[1,2,4]oxadiazol-3-yl)-1H-indazole-3-carboxylic acid (1-isopropyl-piperidin-4-yl)-amide] reads 0.007 µM; that for `O=C(Cn1nc(C(=O)Nc2ccc(N3CCOCC3=O)cc2)c2ccccc21)Nc1ccc(Cl)cn1` [Example 53, 1-[(5-Chloro-pyridin-2-ylcarbamoyl)-methyl]-1H-indazole-3-carboxylic acid [4-(3-oxo-morpholin-4-yl)-phenyl]-amide], 0.24 µM.
The result for `CC(C)N1CCC(NC(=O)c2nn(Cc3cc(-c4ccc(Cl)s4)on3)c3ccc(C(=O)NCCS(C)(=O)=O)cc23)CC1` [Example 13, 1-[5-(5-Chloro-thiophen-2-yl)-isoxazol-3-ylmethyl]-1H-indazole-3,5-dicarboxylic acid 3-[(1-isopropyl-piperidin-4-yl)-amide]5-[(2-methanesulfonyl-ethyl)-amide]] reads 0.04 µM; that for `O=C(Nc1ccc(C(=O)N2CCCC2)cc1)c1nn(Cc2cc(-c3ccc(Cl)s3)on2)c2ccccc12` [Example 34, 1-[5-(5-Chloro-thiophen-2-yl)-isoxazol-3-ylmethyl]-1H-indazole-3-carboxylic acid [4-(pyrrolidine-1-carbonyl)-phenyl]-amide], 0.12 µM; that for `CC1CC(=O)NN=C1c1ccc(NC(=O)c2nn(Cc3cc(-c4ccc(Cl)s4)on3)c3ccccc23)cc1` (stereo not drawn) [Example 43, 1-[5-(5-Chloro-thiophen-2-yl)-isoxazol-3-ylmethyl]-1H-indazole-3-carboxylic acid [4-(4-methyl-6-oxo-1,4,5,6-tetrahydro-pyridazin-3-yl)-phenyl]-amide], 0.73 µM.
Regarding `CS(=O)(=O)c1ccccc1-c1ccc(NC(=O)c2nn(Cc3cc(-c4ccc(Cl)s4)on3)c3ccccc23)cc1` [Example 41, 1-[5-(5-Chloro-thiophen-2-yl)-isoxazol-3-ylmethyl]-1H-indazole-3-carboxylic acid (2′-methanesulfonyl-biphenyl-4-yl)-amide], the Ki was found to be 0.007 µM.
The result for `CC(C)N1CCC(NC(=O)c2nn(Cc3cc(-c4ccc(Cl)s4)on3)c3ccc(C(=O)N4CCC4)cc23)CC1` [Example 12, 5-(Azetidine-1-carbonyl)-1-[5-(5-chloro-thiophen-2-yl)-isoxazol-3-ylmethyl]-1H-indazole-3-carboxylic acid (1-isopropyl-piperidin-4-yl)-amide] reads 0.005 µM.
Take `CC(C)N1CCC(NC(=O)c2nn(Cc3cc(-c4ccc(Cl)s4)on3)c3ccc(C(=O)NCC(F)(F)F)cc23)CC1` [Example 27, 1-[5-(5-Chloro-thiophen-2-yl)-isoxazol-3-ylmethyl]-1H-indazole-3,5-dicarboxylic acid 3-[(1-isopropyl-piperidin-4-yl)-amide]5-[(2,2,2-trifluoro-ethyl)-amide]]: the affinity, expressed as Ki, was 0.039 µM.
The result for `CC(C)N1CCC(NC(=O)c2nn(Cc3cc(-c4ccc(Cl)s4)on3)c3ccc(C(=O)NCC(N)=O)cc23)CC1` [Example 21, 1-[5-(5-Chloro-thiophen-2-yl)-isoxazol-3-ylmethyl]-1H-indazole-3,5-dicarboxylic acid 5-carbamoylmethyl-amide 3-[(1-isopropyl-piperidin-4-yl)-amide]] reads 0.033 µM.
The result for `CC(C)N1CCC(NC(=O)c2nn(Cc3cc(-c4ccc(Cl)s4)on3)c3ccccc23)CC1` [Example 8, 1-[5-(5-Chloro-thiophen-2-yl)-isoxazol-3-ylmethyl]-1H-indazole-3-carboxylic acid (1-isopropyl-piperidin-4-yl)-amide] reads 0.006 µM.
Regarding `CC(C)N1CCC(NC(=O)c2nn(Cc3cc(-c4ccc(Cl)s4)on3)c3ccc(C(=O)NCCN4CCOCC4)cc23)CC1` [Example 15, 1-[5-(5-Chloro-thiophen-2-yl)-isoxazol-3-ylmethyl]-1H-indazole-3,5-dicarboxylic acid 3-[(1-isopropyl-piperidin-4-yl)-amide]5-[(2-morpholin-4-yl-ethyl)-amide]], the Ki was found to be 0.046 µM.
The result for `COC(=O)c1ccc2c(c1)c(C(=O)NC1CCN(C(C)C)CC1)nn2Cc1cc(-c2ccc(Cl)s2)on1` [Example 1, 1-[5-(5-Chloro-thiophen-2-yl)-isoxazol-3-ylmethyl]-3-(1-isopropyl-piperidin-4-ylcarbamoyl)-1H-indazole-5-carboxylic acid methyl ester] reads 0.079 µM; that for `CC(C)N1CCC(NC(=O)c2nn(Cc3cc(-c4ccc(Cl)s4)on3)c3ccc(C(=O)NCC(=O)O)cc23)CC1` [Example 25, {[1-[5-(5-Chloro-thiophen-2-yl)-isoxazol-3-ylmethyl]-3-(1-isopropyl-piperidin-4-ylcarbamoyl)-1H-indazole-5-carbonyl]-amino}-acetic acid], 0.014 µM; that for `Cc1oc(=O)oc1COC(=O)c1ccc2c(c1)c(C(=O)NC1CCN(C(C)C)CC1)nn2Cc1cc(-c2ccc(Cl)s2)on1` [Example 50, 1-[5-(5-Chloro-thiophen-2-yl)-isoxazol-3-ylmethyl]-3-(1-isopropyl-piperidin-4-ylcarbamoyl)-1H-indazole-5-carboxylic acid 5-methyl-2-oxo-[1,3]dioxol-4-ylmethyl ester], 0.041 µM.
The result for `CC(C)N1CCC(NC(=O)c2nn(Cc3cc(-c4ccc(Cl)s4)on3)c3ccc(C(=O)NCC(F)F)cc23)CC1` [Example 20, 1-[5-(5-Chloro-thiophen-2-yl)-isoxazol-3-ylmethyl]-1H-indazole-3,5-dicarboxylic acid 5-[(2,2-difluoro-ethyl)-amide]3-[(1-isopropyl-piperidin-4-yl)-amide]] reads 0.047 µM; that for `CC(C)N1CCC(NC(=O)c2nn(Cc3cc(-c4ccc(Cl)s4)on3)c3ccc(C(=O)NCCO)cc23)CC1` [Example 22, 1-[5-(5-Chloro-thiophen-2-yl)-isoxazol-3-ylmethyl]-1H-indazole-3,5-dicarboxylic acid 5-[(2-hydroxy-ethyl)-amide]3-[(1-isopropyl-piperidin-4-yl)-amide]], 0.028 µM.
In turn, `CC(C)N1CCC(NC(=O)c2nn(Cc3cc(-c4ccc(Cl)s4)on3)c3ccc(C(=O)N4CC(C(=O)O)C4)cc23)CC1` [Example 52, 1-[1-[5-(5-Chloro-thiophen-2-yl)-isoxazol-3-ylmethyl]-3-(1-isopropyl-piperidin-4-ylcarbamoyl)-1H-indazole-5-carbonyl]-azetidine-3-carboxylic acid] had a Ki of 0.01 µM.
The result for `CC(C)N1CCC(NC(=O)c2nn(Cc3cc(-c4ccc(Cl)s4)on3)c3cccc(C#N)c23)CC1` [Example 10, 1-[5-(5-Chloro-thiophen-2-yl)-isoxazol-3-ylmethyl]-4-cyano-1H-indazole-3-carboxylic acid (1-isopropyl-piperidin-4-yl)-amide] reads 0.009 µM; that for `CC(C)N1CCC(NC(=O)c2nn(Cc3cc(-c4ccc(Cl)s4)on3)c3ccc(C(=O)N4CCCOCC4)cc23)CC1` [Example 30, 1-[5-(5-Chloro-thiophen-2-yl)-isoxazol-3-ylmethyl]-5-([1,4]oxazepane-4-carbonyl)-1H-indazole-3-carboxylic acid (1-isopropyl-piperidin-4-yl)-amide], 0.012 µM.
The result for `COC(=O)c1ccc2c(c1)c(C(=O)Nc1ccc(N3CCOCC3=O)cc1)nn2Cc1cc(-c2ccc(Cl)s2)on1` [Example 47, 1-[5-(5-Chloro-thiophen-2-yl)-isoxazol-3-ylmethyl]-3-[4-(3-oxo-morpholin-4-yl)-phenylcarbamoyl]-1H-indazole-5-carboxylic acid methyl ester] reads 0.009 µM; that for `O=C(Nc1ccc(N2CCCC2=O)cc1)c1nn(Cc2cc(-c3ccc(Cl)s3)on2)c2ccccc12` [Example 39, 1-[5-(5-Chloro-thiophen-2-yl)-isoxazol-3-ylmethyl]-1H-indazole-3-carboxylic acid [4-(2-oxo-pyrrolidin-1-yl)-phenyl]-amide], 0.019 µM; that for `CC(C)N1CCC(NC(=O)c2nn(Cc3cc(-c4ccc(Cl)s4)on3)c3ccc(C(=O)N(C)CCO)cc23)CC1` [Example 18, 1-[5-(5-Chloro-thiophen-2-yl)-isoxazol-3-ylmethyl]-1H-indazole-3,5-dicarboxylic acid 5-[(2-hydroxy-ethyl)-methyl-amide]3-[(1-isopropyl-piperidin-4-yl)-amide]], 0.013 µM.
The result for `O=C(Nc1ccc(-n2ccc(=O)cc2)cc1)c1nn(Cc2cc(-c3ccc(Cl)s3)on2)c2ccccc12` [Example 54, 1-[5-(5-Chloro-thiophen-2-yl)-isoxazol-3-ylmethyl]-1H-indazole-3-carboxylic acid [4-(4-oxo-4H-pyridin-1-yl)-phenyl]-amide] reads 0.052 µM.

For the origin of these results see patent US7365088B2, “Indazole-derivatives as factor Xa inhibitors” (Sanofi-Aventis Deutschland GmbH, priority 2003, dated 2008).
